Where no end group is shown, it is not given here.
Legend:
tau protein = test: Tau-1 and pan-Tau immunofluorescence in transfected postnatal sympathetic neurons; assay type: cell-based, rat; conditions: compared to non-transfected neurons = 100%, two days after transfection
Protocol: Peripheral sympathetic neurons were obtained from postnatal day 1-3 rats. […] Following mechanical dissociation the cell suspension was filtered through a 40 μm nylon mesh and seeded at 6 SCGs per well into uncoated Falcon dishes for preplating purposes. After 4 hours neurons were transferred into glass floor dishes (Willco Wells B.V., gwst 3522, 3.8 cm^2 area/dish) coated with poly-D-lysine/laminin. Neurons were maintained in RPMI medium containing antibiotics, N2 additive (Invitrogen) and 100 ng/ml nerve growth factor (NGF; Sigma) at 37° C. in a humidified atmosphere with 5% CO2.
Neurons were transfected 2 hours after seeding applying the biolistic approach. This method uses a hand held gun to bombard dissociated neurons at high velocity with micron-size gold particles loaded with DNA. The coating of gold particles with DNA was achieved using a modification of the manufacturer's instructions (Bio-Rad Laboratories). For preparation of 35 cartridges 25 mg gold particles (1.6 μm diameter) were suspended in 50 μl of 0.05 M spermidine. After vortexing and sonication for 5 seconds, 50 μg plasmid DNA dissolved in 50 μl TE buffer was added (for co-transfection experiments, 80 μg were used, i.e., 40 μg Plasmid I+40 μg Plasmid 2). The amount of gold particles and DNA corresponds to a microcarrier loading quantity (MLQ) of about 0.7 (mg/cartridge) and to a DNA loading ratio (DLR) of 2 (μg/mg) for single transfection experiments. DNA, spermidine and gold were then mixed for 5 sec in a variable speed vortexer. At low vortexing speed, 50 μl 1 M CaCl2 was added dropwise to the mixture for association of DNA with the gold particles followed by precipitation for 10 min at room temperature. The supernatant was removed and the pellet rinsed with 800 μl of 100% ethanol. Washing was repeated two times with centrifugation steps at 3000 g between each wash. […]
A fully motorized Zeiss Axiovert 100M microscope equipped for inverted fluorescence was used for visualization of fluorescent neurons. […]

Gli3 = test: Localization of GFP-GLI3 in cultured U373MG cells; assay type: cell-based; conditions: 24 hours after transfection, 100 cells counted
Protocol: COS7-HELA- and U373MG-cells were transfected using PolyFect Transfection Reagent (Qiagen, cat. no. 301107) according to the manufacturer's instructions. Gli3 cDNA was cloned into pEGFP-C1 and pEGFP-N3 vectors (Clontech) respectively. 100 transfected cells per experiment (Gli3-GFP, GFP-Gli3, Gli3-GFP+myc-MID1, GFP-Gli3+myc-MID1, Gli3-GFP+myc-BBox1, GFP-Gli3+myc-BBox1) were counted and analysed for Gli3 localization. Experiments were repeated twice. […] PCMV-Tag3 vector from Stratagene was used for myc-MID1 and myc-BBox1 overexpression.

Substance: B-Box1: peptide derived from the MID1 domain that is responsible for α4 binding (amino acids 108-165), expressed from plasmid (ANTMTSAEKVLCQFCDQDPAQDAVKTCVTCEVSYCDECLKATHPNKKPFTGHRLIEPI; cysteine pairing not given here; also: myc tag; UniProt O15344 108-165, looked up, fragment)
- Tau-1 immunoreactivity (dephosphorylated tau) (tau protein; listed as B-BOX1): significantly increased
- Tau-1 immunoreactivity (dephosphorylated tau) (tau protein; listed as Bbox1): pronounced increase in fluorescence
- GFP-GLI3 localization (Gli3; listed as B-BOX1): significant change of GFP-GLI3 from nucleus to cytosol
- GFP-GLI3 localization (Gli3; listed as BBox1): significant change from the nucleus to the cytosol
- GFP-GLI3 localization (Gli3; listed as Bbox1): significant Bbox1-dependent change of Gli3 localization
